Test results taken from PubChem BioAssay (NCI).
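Dose response: 5 concentrations. Exposure: 48 h. Format: 96-well plates. Endpoint: linear interpolation; highest concentration if not reached. Abbreviation: GI50, concentration required for 50% inhibition of growth. TGI marks complete inhibition of growth.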

Legend:
Assay in all cases: NCI-60 cell line screen, 48 h
COLO 205 colon = system: COLO 205 colon
EKVX NSCLC = system: EKVX NSCLC
HCT-116 colon = system: HCT-116 colon
HOP-62 NSCLC = system: HOP-62 NSCLC
M14 melanoma = system: M14 melanoma
MOLT-4 leukemia = system: MOLT-4 leukemia
SNB-19 CNS = system: SNB-19 CNS
SR leukemia = system: SR leukemia
UO-31 renal = system: UO-31 renal
HCT-15 colon = system: HCT-15 colon

Row | SMILES | TGI (COLO 205 colon) | TGI (EKVX NSCLC) | TGI (HCT-116 colon) | TGI (HOP-62 NSCLC) | TGI (M14 melanoma) | TGI (MOLT-4 leukemia) | TGI (SNB-19 CNS) | TGI (SR leukemia) | TGI (UO-31 renal) | TGI (HCT-15 colon) | GI50 (EKVX NSCLC) | GI50 (HCT-116 colon) | GI50 (HCT-15 colon) | GI50 (HOP-62 NSCLC) | GI50 (M14 melanoma) | GI50 (MOLT-4 leukemia) | GI50 (SNB-19 CNS) | GI50 (SR leukemia) | GI50 (UO-31 renal) | GI50 (COLO 205 colon)
1 | COc1cc2c(cc1OC(=O)CC(C)O)C1C(OC2=O)C(OC(C)=O)C=C2CCN(C)[C@H]21 (some centres not stated) | > 100 µM | > 100 µM | > 100 µM | 55.7 µM | > 100 µM | > 100 µM | 57.5 µM | > 100 µM | > 100 µM |  |  |  |  |  |  |  |  |  |  | 
2 | O=C1C=C(Br)c2c(-c3ccccc3)oc3cccc1c23 | > 100 µM | > 100 µM | > 100 µM | > 100 µM | 98.2 µM | > 67.8 µM | > 100 µM | > 30.8 µM | > 100 µM | > 87.1 µM |  |  |  |  |  |  |  |  |  | 
3 | CCN(C(=O)N1CCN(c2cc3c(cc2F)c(=O)c(C(=O)O)cn3C2CC2)CC1)c1nc(-c2ccc(C)cc2)cs1 |  | > 100 µM | > 40.1 µM | > 100 µM | > 100 µM | > 100 µM | > 45.4 µM | > 100 µM | > 100 µM | > 100 µM | 1.52 µM | 1.04 µM | 0.341 µM | 1.41 µM | 0.928 µM | 0.469 µM | 1.03 µM | 0.269 µM | 0.322 µM | 
4 | N#CC(C(=O)CCC(=O)Nc1cccc(Cl)c1)c1ccccc1 (configuration not stated) | > 100 µM | > 100 µM | > 100 µM | > 100 µM | > 100 µM | > 100 µM | > 100 µM | > 100 µM | > 100 µM | > 100 µM |  |  |  |  |  |  |  |  |  | 
5 | O=c1[nH]c2ccccc2nc1-c1c[nH]c2ccccc12 | > 100 µM | > 100 µM | > 100 µM | > 100 µM | > 100 µM | > 100 µM | > 100 µM | > 100 µM | > 100 µM | > 100 µM | 18.8 µM | > 100 µM | > 100 µM | > 100 µM | > 100 µM | > 100 µM | > 100 µM | > 100 µM | 0.725 µM | > 100 µM
6 | CN(C)CCCN1c2ccccc2CCc2ccc(Cl)cc21 | 3.53 µM | 26.4 µM | 12.3 µM | 23.3 µM | 3.35 µM | 11.1 µM | 21.5 µM | 5.11 µM | 19.7 µM | 12.1 µM | 10.9 µM | 3.53 µM | 3.35 µM | 10.8 µM | 1.83 µM | 3.07 µM | 6.42 µM | 2.08 µM | 5.17 µM | 1.91 µM
7 | O=C(C1CCCCC1)[C@@H]1[C@]2(C(=O)NC3CCCCC32)[C@@H]2CCCN2[C@@]12C(=O)NC1CCC(Cl)CC12 (some centres not stated) | 323 µM | 217 µM | 208 µM | 287 µM | 253 µM | 213 µM | 299 µM | 124 µM | 226 µM | 211 µM | 69.9 µM | 71.6 µM | 56.5 µM | 123 µM | 116 µM | 32.2 µM | 148 µM | 30.8 µM | 54.1 µM | 158 µM
8 | O=C(c1ccccc1)C(CN1CCOCC1)c1ccccc1 (configuration not stated) | 3.32 µM | 16.9 µM | 2.08 µM | 19.7 µM | 3.57 µM | 6.43 µM | 15.6 µM | 4.45 µM | 3.02 µM | 2.21 µM | 3.32 µM | 0.609 µM | 0.641 µM | 6.5 µM | 1.66 µM | 2.24 µM | 3.76 µM | 1.02 µM | 1.41 µM | 1.76 µM
9 | Cc1cc(N/N=C/c2nc(-c3ccc(Br)cc3)oc2C)c2cc(Cl)ccc2n1 | > 100 µM | > 100 µM | > 100 µM | > 100 µM | > 100 µM | > 100 µM | > 100 µM | > 100 µM | > 100 µM | > 100 µM | > 100 µM | > 100 µM | > 100 µM | > 100 µM | > 100 µM | > 100 µM | > 100 µM | > 100 µM | > 100 µM | > 100 µM
10 | O=C(/C(=C/c1ccccc1)CN1CCCCC1)c1ccccc1 | 1.41 µM | 9.23 µM | 1.44 µM | 9.93 µM | 2.88 µM | 31.8 µM | 15.7 µM | 5.78 µM | 2.3 µM | 3.34 µM | 2.51 µM | 0.468 µM | 0.617 µM | 2.88 µM | 1.23 µM | 0.403 µM | 3.9 µM | 0.271 µM | 0.996 µM | 0.447 µM
11 | COc1ccc(-c2n[nH]nc2-c2cc(OC)c3c(c2OC)OCO3)cc1 | 5.57 µM | 39.7 µM | 19.2 µM | > 66.1 µM | 19.5 µM | 33.1 µM | > 100 µM | 22.6 µM | 46.6 µM | > 100 µM | 2.8 µM | 0.424 µM | 0.546 µM | 1.45 µM | 0.433 µM | 0.463 µM | 3.82 µM | 0.299 µM | 3.83 µM | 1.19 µM
12 | Nc1ncnc2[nH]ncc12 | > 67.3 µM | > 79.9 µM | 10.5 µM | > 100 µM | 12.4 µM | > 100 µM | > 100 µM | > 100 µM | 0.916 µM | > 100 µM | 2.6 µM | 0.511 µM | 0.281 µM | 2.23 µM | 0.442 µM | 2.64 µM | 13.8 µM | 0.445 µM | 0.232 µM | 1.55 µM
13 | Cn1cnc2nc(Cl)nc(NC(C)(C)C(C)(C)O)c21 | > 100 µM | > 100 µM | > 100 µM | > 100 µM | > 100 µM | > 100 µM | > 100 µM | > 100 µM | > 100 µM | > 100 µM |  |  |  |  |  |  |  |  |  | 
14 | C=CCOC1OC(CO[Si](C)(C)C(C)(C)C)C(OCc2ccccc2)C(OCc2ccccc2)C1OCc1ccccc1 (configuration not stated) | > 100 µM | > 100 µM | 65.9 µM | 48.3 µM | > 100 µM | > 100 µM | 60.3 µM | > 100 µM | > 100 µM | > 100 µM |  |  |  |  |  |  |  |  |  | 
